One assay deals with T1, hP2X2/3H (Homo sapiens, UniProt P56373+Q9UBL9).
T1 construct: expressed in transfected cells; host or cells: e.g. HEK293 or 1321N1
T1 sequence (Q9UBL9 1-471): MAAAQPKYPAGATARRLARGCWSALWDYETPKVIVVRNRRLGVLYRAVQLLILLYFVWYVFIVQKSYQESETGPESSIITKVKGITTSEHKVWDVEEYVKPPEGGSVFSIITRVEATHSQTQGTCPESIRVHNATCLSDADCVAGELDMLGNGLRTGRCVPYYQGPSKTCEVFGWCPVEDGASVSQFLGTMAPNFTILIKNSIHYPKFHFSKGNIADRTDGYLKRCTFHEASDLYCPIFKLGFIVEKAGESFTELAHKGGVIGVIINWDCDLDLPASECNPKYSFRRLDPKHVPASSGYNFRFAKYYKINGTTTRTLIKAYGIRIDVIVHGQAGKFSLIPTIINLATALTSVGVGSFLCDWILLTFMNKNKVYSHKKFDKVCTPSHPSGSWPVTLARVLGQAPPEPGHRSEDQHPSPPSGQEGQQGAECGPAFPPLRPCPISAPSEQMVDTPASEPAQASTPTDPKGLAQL
T1 sequence (P56373 1-397): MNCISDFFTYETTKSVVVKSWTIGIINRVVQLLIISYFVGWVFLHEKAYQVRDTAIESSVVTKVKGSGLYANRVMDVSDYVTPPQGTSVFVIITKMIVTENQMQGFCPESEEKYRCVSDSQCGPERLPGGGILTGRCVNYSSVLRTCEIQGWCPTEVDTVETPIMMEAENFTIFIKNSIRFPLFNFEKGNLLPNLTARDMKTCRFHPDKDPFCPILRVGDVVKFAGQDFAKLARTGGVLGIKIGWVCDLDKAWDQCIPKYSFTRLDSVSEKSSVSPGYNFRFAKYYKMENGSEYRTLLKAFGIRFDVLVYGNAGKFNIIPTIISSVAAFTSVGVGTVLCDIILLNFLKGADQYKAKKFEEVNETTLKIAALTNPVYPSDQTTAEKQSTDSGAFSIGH
The assay can be described thus: Calcium uptake assay (P2X antagonist assay), P2X2/3 heteromer. The format is cell-based. The note with it: calcium uptake assay, hP2X2/3H; read-out: IC50 hP2X2/3H (nM), Ca Influx. An excerpt: (§1) The human P2X2/3 chimera clone is created as described by Neelands et al, and then cloned into an expression vector as above. Receptors are expressed in cells (e.g., HEK293 or 1321N1 (obtained from the ECACC)) via transient transfection using standard lipid mediated transfection, or by creation of stable transfectants for each receptor. For expression of the P2X2/3 heteromeric receptor, the P2X3 expression vector is stably transfected into a cell line already stably expressing P2X2. P2X2/3 heteromer function is isolated using pharmacological methods. Cell lines are maintained in DMEM+5% Glutamax, the appropriate level of selective antibiotic, and 10% heat inactivated FBS.
(§2) Functional activity of compounds at the P2X receptor is determined by measuring their ability to inhibit agonist-induced calcium influx. Compounds are tested for antagonist activity against the P2X2/3 chimera, the P2X3 homomer, or the P2X2/3 heteromer. At the start of each screening day, the agonist EC50 is determined. Compound % inhibition or IC50s are subsequently determined using a predetermined agonist concentration (EC50-90 depending on cell line) as a stimulus. The agonists used are αβMeATP, ATP, or other ATP analogs. Compounds may be tested at concentrations ranging from 1 pM to 10 μM.
(§3) To test for antagonist activity, cells expressing the appropriate receptor are seeded onto 96 or 384 well plates 18-24 hours prior to assay. […] Plates are incubated at 37° C. and then equilibrated at room temperature. Antagonism of agonist-induced calcium influx is measured using a fluorescent imaging plate reader (e.g. FLIPR^TETRA, Molecular Devices, Sunnyvale, Calif.). The assay comprises two stages: a pre-treatment phase followed by a treatment phase. Compounds may be tested as follows: For the pre-treatment phase, 50 μL of 3× concentration of test compound in HBSS is added to cells containing […], of dye loading media to achieve a final concentration of 1× test compound. For the treatment phase, at a set interval after pre-treatment (1-30 minutes), 50 μL of 1× test compound plus 4× agonist solution is added, resulting in a final concentration of 1× compound and 1× agonist. […] Responses are measured as (peak fluorescence after agonist addition) minus (baseline fluorescence prior to treatment). Percent inhibition is calculated as follows:
(§4) [formula] IC50 values are determined by analyzing dose response data in a 4 parameter logistic fit using GraphPad Prizm.

The target of a further assay is T2, hP2X3 (Homo sapiens, UniProt P56373).
T2 construct: expressed in transfected cells; host or cells: e.g. HEK293 or 1321N1
T2 sequence (P56373 1-397): T1 sequence (P56373 1-397)
As to the kind of experiment: Calcium uptake assay (P2X antagonist assay), P2X3 homomer. It is filed as cell-based. Particulars: calcium uptake assay, hP2X3; read-out: IC50 hP2X3 (nM), Ca Influx.
Source text: as §1, §2, §3, §4

From patent US8946439B2, “Amide compounds, compositions and uses thereof” (Evotec AG, priority 2008, dated 2015) come the findings set out here.

Each structure is given as a SMILES string.

As for `CCCS(=O)(=O)c1cc(C(=O)NCc2ccn3ccnc3c2)cc(-c2ccc(C)cc2)c1` [Compound 57], the IC50 on hP2X2/3H and on hP2X3 was less than 100 nM throughout.
Take `Cc1ccc(-c2cc(C(=O)NCc3ccc(C)nc3)cc(S(C)(=O)=O)c2)cc1` [Compound 58, 4′-Methyl-N-((6-methylpyridin-3-yl)methyl)-5-(methylsulfonyl)biphenyl-3-carboxamide]: the IC50 at hP2X2/3H and at hP2X3 was less than 100 nM each time.
For `Cc1ccc(-c2cc(C(=O)NCc3cnc(C)nc3)cc(S(C)(=O)=O)c2)c(C#N)c1` [Compound 59], the IC50 at hP2X2/3H is 100 to 500 nM; on hP2X3, less than 100 nM.
The like results for `Cc1ccc(-c2cc(C(=O)NCc3ccc(C)nc3)cc(C(=O)N3CCCC3)c2)cc1` [Compound 60] were, in that order, less than 100 nM and less than 100 nM.
Regarding `Cc1ccc(-c2cc(C(=O)NCc3ccc(C)nc3)cc(C(=O)N3CCCC3)c2)c(C#N)c1` [Compound 61], the IC50 at hP2X2/3H and on hP2X3 was less than 100 nM in each case.
For `Cc1ccc(-c2cc(C(=O)NCc3ccc(C(F)(F)F)nc3)cc(C(=O)N3CCCC3)c2)c(C#N)c1` [Compound 62, 2′-Cyano-4′-methyl-5-(pyrrolidine-1-carbonyl)-N-((6-(trifluoromethyl)pyridin-3-yl)methyl)biphenyl-3-carboxamide], the IC50 at hP2X2/3H was 100 to 500 nM; on hP2X3, less than 100 nM.
For `Cc1ccc(-c2cc(C(=O)NCc3ccc(C)nc3)cc(C(=O)N3CC(O)C3)c2)c(C#N)c1` [Compound 63, 2′-Cyano-5-(3-hydroxyazetidine-1-carbonyl)-4′-methyl-N-((6-methylpyridin-3-yl)methyl)biphenyl-3-carboxamide], in that order: less than 100 nM and less than 100 nM.
With `Cc1ccc(-c2cc(C(=O)NCc3ccc(C(F)(F)F)nc3)cc(C(=O)N3CC(O)C3)c2)c(C#N)c1` [Compound 64], the IC50 at hP2X2/3H and on hP2X3 was less than 100 nM each time.
Turning to `Cc1ccc(-c2cc(S(=O)(=O)N3CCCC3)cc(C(=O)N[C@H](C)c3cnc(C)nc3)c2C)cc1` [Compound 65, (R)-2,4′-Dimethyl-N-(1-(2-methylpyrimidin-5-yl)ethyl)-5-(pyrrolidin-1-ylsulfonyl)biphenyl-3-carboxamide], the results for the IC50 on hP2X2/3H and on hP2X3 were greater than 1000 nM and 100 to 500 nM, respectively.
The like results for `Cc1ccc(-c2cc(S(=O)(=O)N3CCCC3)cc(C(=O)NCc3ccc(Cl)c(S(C)(=O)=O)c3)c2C)cc1` [Compound 66] were, in that order, greater than 1000 nM and 100 to 500 nM.
For the molecule `Cc1ccc(-c2cc(S(=O)(=O)N3CCCC3)cc(C(=O)NCc3cnc(C)nc3)c2C)cc1` [Compound 67, 2,4′-Dimethyl-N-((2-methylpyrimidin-5-yl)methyl)-5-(pyrrolidin-1-ylsulfonyl)biphenyl-3-carboxamide], the IC50 at hP2X2/3H is greater than 1000 nM; on hP2X3, less than 100 nM.
For `Cc1ccc(-c2cc(S(=O)(=O)N3CCCC3)cc(C(=O)NCc3ccc(C)nc3)c2C)cc1` [Compound 68], the IC50 was greater than 1000 nM on hP2X2/3H and 100 to 500 nM on hP2X3.
In the case of `Cc1ccc(-c2cc(C(=O)NCc3ccc(Cl)nc3)cc(C(=O)N3CCCC3)c2)c(C#N)c1` [Compound 69], the IC50 on hP2X2/3H and at hP2X3 was less than 100 nM throughout.
For the molecule `CCCS(=O)(=O)c1cc(C(=O)N[C@@H](C)CN2CCOCC2)cc(-c2ccc(C)cc2)c1` [Compound 70], the results for the IC50 at hP2X2/3H and at hP2X3 were 100 to 500 nM and less than 100 nM, respectively.
The like results for `Cc1ccc(-c2cc(C(=O)NCc3ccc(C)c(S(C)(=O)=O)c3)cc(C(=O)N3CCCC3)c2)cc1` [Compound 71] were, in that order, less than 100 nM and less than 100 nM.
For the molecule `Cc1ccc(-c2cc(C(=O)NCc3ccc4c(c3)S(=O)(=O)CC4)cc(C(=O)N3CCCC3)c2)cc1` [Compound 72], the IC50 on hP2X2/3H and at hP2X3 was less than 100 nM each time.
Regarding `Cc1ccc(-c2cc(C(=O)NCc3ccc(Cl)c(S(=O)(=O)NC4CC4)c3)cc(C(=O)N3CCCC3)c2)cc1` [Compound 73, N-(4-Chloro-3-(N-cyclopropylsulfamoyl)benzyl)-4′-methyl-5-(pyrrolidine-1-carbonyl)biphenyl-3-carboxamide], the IC50 lay in the range of 501 to 1000 nM on hP2X2/3H and 100 to 500 nM at hP2X3.
For `Cc1ccc(-c2cc(C(=O)NCc3ncc(C(F)(F)F)cc3Cl)cc(C(=O)N3CCCC3)c2)cc1` [Compound 74], in that order: less than 100 nM and less than 100 nM.
The like results for `Cc1ccc(-c2cc(C(=O)N[C@H](C)c3ccc(C(F)(F)F)nc3)cc(C(=O)N3CCC3)c2)cc1` [Compound 75] were, in that order, less than 100 nM and less than 100 nM.
For `Cc1ccc(-c2cc(C(=O)N[C@H](C)c3cnc(C)nc3)cc(C(=O)N3CC(O)C3)c2)cc1` [Compound 76], in that order: less than 100 nM and less than 100 nM.
Consider `COc1ncc([C@@H](C)NC(=O)c2cc(C(=O)N3CCC3)cc(-c3ccc(C)cc3)c2)cn1` [Compound 77], for which the IC50 on hP2X2/3H and at hP2X3 was less than 100 nM each time.
Take `Cc1ccc(-c2cc(C(=O)N[C@H](C)c3cnc(C)nc3)cc(C(=O)N3CCC3)c2)cc1` [Compound 78]: the IC50 at hP2X2/3H and on hP2X3 was less than 100 nM in each case.
With `COc1ncc(CNC(=O)c2cc(C(=O)N3CCCC3)cc(-c3ccc(C)cc3)c2)c(N)n1` [Compound 79], the IC50 at hP2X2/3H is 501 to 1000 nM; on hP2X3 it was 100 to 500 nM.
In the case of `Cc1ccc(-c2cc(C(=O)NCc3cnc(C(C)C)nc3)cc(C(=O)N3CCCC3)c2)cc1` [Compound 80], the IC50 on hP2X2/3H is greater than 1000 nM; on hP2X3, 501 to 1000 nM.
For `Cc1ccc(-c2cc(C(=O)NCc3ncc(Cl)cc3Cl)cc(C(=O)N3CCCC3)c2)cc1` [Compound 81], in that order: less than 100 nM and less than 100 nM.
For the molecule `Cc1ccc(-c2cc(C(=O)N[C@@H](C)CN3CCOCC3)cc(C(=O)N3CCCC3)c2)cc1` [Compound 82], the IC50 is 501 to 1000 nM on hP2X2/3H and less than 100 nM at hP2X3.
On to `Cc1ccc(-c2cc(C(=O)NC(CCO)c3ccc(C(F)(F)F)nc3)cc(C(=O)N3CCCC3)c2)cc1` (stereo not drawn) [Compound 83, N-(3-Hydroxy-1-(6-(trifluoromethyl)pyridin-3-yl)propyl)-4′-methyl-5-(pyrrolidine-1-carbonyl)biphenyl-3-carboxamide], for which the IC50 at hP2X2/3H and on hP2X3 was 100 to 500 nM each time.
`COc1ncc([C@@H](C)NC(=O)c2cc(C(=O)N3CC(O)C3)cc(-c3ccc(C)cc3)c2)cn1` [Compound 84]: the IC50 is 100 to 500 nM at hP2X2/3H and less than 100 nM on hP2X3.
The like results for `Cc1ccc(-c2cc(C(=O)N[C@H](C)c3ccc(C(F)(F)F)nc3)cc(C(=O)N3CC(O)C3)c2)cc1` [Compound 85] were, in that order, less than 100 nM and less than 100 nM.
For the molecule `Cc1ccc(-c2cc(C(=O)NCc3ccc(C)nc3)cc(C(=O)N3CCC(N4CCOCC4)C3)c2)cc1` (stereo not drawn) [Compound 86, 4′-Methyl-N-((6-methylpyridin-3-yl)methyl)-5-(3-morpholinopyrrolidine-1-carbonyl)biphenyl-3-carboxamide], the IC50 at hP2X2/3H and on hP2X3 was 100 to 500 nM each time.
